Test results as given in US9539252B2, “Piperazine-substituted benzothiophene derivatives as antipsychotic agents” (OTSUKA PHARMACEUTICAL CO., LTD., priority 2011, dated 2017).

Test: Solubility in oil (sesame oil, benzyl benzoate), visual observation
Details: benzyl benzoate, oil or lipid, thermodynamic from solid

Structure (SMILES)	solubility
CC(C)(C)C(=O)OCn1c(=O)ccc2ccc(OCCCCN3CCN(c4cccc5sccc45)CC3)cc21 [Example 18, 2,2-dimethylpropionic acid 7-[4-(4-benzo[b]thiophen-4-ylpiperazin-1-yl)butoxy]-2-oxo-2H-quinolin-1-ylmethyl ester]	> 100 mg/mL
CC(C)CCC(=O)OCn1c(=O)ccc2ccc(OCCCCN3CCN(c4cccc5sccc45)CC3)cc21 [Example 126, 4-methylpentanoic acid 7-[4-(4-benzo[b]thiophen-4-ylpiperazin-1-yl)butoxy]-2-oxo-2H-quinolin-1-ylmethyl ester]	> 100 mg/mL
CCCCC(C)C(=O)OCn1c(=O)ccc2ccc(OCCCCN3CCN(c4cccc5sccc45)CC3)cc21 (stereo not shown) [Example 88, 2-methylhexanoic acid 7-[4-(4-benzo[b]thiophen-4-ylpiperazin-1-yl)butoxy]-2-oxo-2H-quinolin-1-ylmethyl ester]	> 100 mg/mL
O=C(OCN1C(=O)CCc2ccc(OCCCCN3CCN(c4cccc5sccc45)CC3)cc21)OC1CCCCC1 [Example 150, carbonic acid 7-[4-(4-benzo[b]thiophen-4-ylpiperazin-1-yl)butoxy]-2-oxo-3,4-dihydro-2H-quinolin-1-ylmethyl ester cyclohexyl ester]	> 100 mg/mL
CCCCN(CCCC)C(=O)OCn1c(=O)ccc2ccc(OCCCCN3CCN(c4cccc5sccc45)CC3)cc21 [Example 45, N,N-dibutylcarbamic acid 7-[4-(4-benzo[b]thiophen-4-ylpiperazin-1-yl)butoxy]-2-oxo-2H-quinolin-1-ylmethyl ester]	> 100 mg/mL
CCCCNC(=O)OCN1C(=O)CCc2ccc(OCCCCN3CCN(c4cccc5sccc45)CC3)cc21 [Example 27, N-butylcarbamic acid 7-[4-(4-benzo[b]thiophen-4-ylpiperazin-1-yl)butoxy]-2-oxo-3,4-dihydro-2H-quinolin-1-ylmethyl ester]	> 100 mg/mL
CCC(C)C(=O)OCN1C(=O)CCc2ccc(OCCCCN3CCN(c4cccc5sccc45)CC3)cc21 (stereo not shown) [Example 77, 2-methylbutyric acid 7-[4-(4-benzo[b]thiophen-4-ylpiperazin-1-yl)butoxy]-2-oxo-3,4-dihydro-2H-quinolin-1-ylmethyl ester]	> 100 mg/mL
CCCCCCCCCCCC(=O)Oc1ccc2ccc(OCCCCN3CCN(c4cccc5sccc45)CC3)cc2n1 [Example 379, 7-[4-(4-benzo[b]thiophen-4-yl-piperazin-1-yl)-butoxy]-quinolin-2-yl dodecanoate]	> 100 mg/mL
C=CCCCCCCCCC(=O)OCn1c(=O)ccc2ccc(OCCCCN3CCN(c4cccc5sccc45)CC3)cc21 [Example 74, undec-10-enoic acid 7-[4-(4-benzo[b]thiophen-4-ylpiperazin-1-yl)butoxy]-2-oxo-2H-quinolin-1-ylmethyl ester]	> 100 mg/mL
CNC(=O)OCn1c(=O)ccc2ccc(OCCCCN3CCN(c4cccc5sccc45)CC3)cc21 [Example 53, N-methylcarbamic acid 7-[4-(4-benzo[b]thiophen-4-ylpiperazin-1-yl)butoxy]-2-oxo-2H-quinolin-1-ylmethyl ester]	> 100 mg/mL
CCOC(=O)CCNC(=O)OCn1c(=O)ccc2ccc(OCCCCN3CCN(c4cccc5sccc45)CC3)cc21 [Example 99, 3-{7-[4-(4-benzo[b]thiophen-4-ylpiperazin-1-yl)butoxy]-2-oxo-2H-quinolin-1-ylmethoxycarbonylamino}-propionic acid ethyl ester]	> 100 mg/mL
O=C(OCn1c(=O)ccc2ccc(OCCCCN3CCN(c4cccc5sccc45)CC3)cc21)N1CCOCC1 [Example 67, morpholine-4-carboxylic acid 7-[4-(4-benzo[b]thiophen-4-ylpiperazin-1-yl)butoxy]-2-oxo-2H-quinolin-1-ylmethyl ester]	> 100 mg/mL
CCCC(C)C(=O)OCN1C(=O)CCc2ccc(OCCCCN3CCN(c4cccc5sccc45)CC3)cc21 (stereo not shown) [Example 81, 2-methylpentanoic acid 7-[4-(4-benzo[b]thiophen-4-ylpiperazin-1-yl)butoxy]-2-oxo-3,4-dihydro-2H-quinolin-1-ylmethyl ester]	> 100 mg/mL
CCCCCCCOC(=O)OCN1C(=O)CCc2ccc(OCCCCN3CCN(c4cccc5sccc45)CC3)cc21 [Example 145, carbonic acid 7-[4-(4-benzo[b]thiophen-4-ylpiperazin-1-yl)butoxy]-2-oxo-3,4-dihydro-2H-quinolin-1-ylmethyl ester heptyl ester]	> 100 mg/mL
CC(=O)OCn1c(=O)ccc2ccc(OCCCCN3CCN(c4cccc5sccc45)CC3)cc21 [Example 61, acetic acid 7-[4-(4-benzo[b]thiophen-4-ylpiperazin-1-yl)butoxy]-2-oxo-2H-quinolin-1-ylmethyl ester]	> 100 mg/mL
CCCCCCCCCCCCCCCCCCNC(=O)OCn1c(=O)ccc2ccc(OCCCCN3CCN(c4cccc5sccc45)CC3)cc21 [Example 38, N-octadecylcarbamic acid 7-[4-(4-benzo[b]thiophen-4-ylpiperazin-3-yl)butoxy]-2-oxo-2H-quinolin-1-ylmethyl ester]	> 100 mg/mL
O=C(OC/C=C/c1ccccc1)OCn1c(=O)ccc2ccc(OCCCCN3CCN(c4cccc5sccc45)CC3)cc21 [Example 140, carbonic acid 7-[4-(4-benzo[b]thiophen-4-ylpiperazin-1-yl)butoxy]-2-oxo-2H-quinolin-1-ylmethyl ester (E)-3-phenyl-allyl ester]	> 100 mg/mL
O=C(OCN1C(=O)CCc2ccc(OCCCCN3CCN(c4cccc5sccc45)CC3)cc21)c1cccs1 [Example 131, thiophene-2-carboxylic acid 7-[4-(4-benzo[b]thiophen-4-ylpiperazin-1-yl)butoxy]-2-oxo-3,4-dihydro-2H-quinolin-1-ylmethyl ester]	> 100 mg/mL
O=C(OCN1C(=O)CCc2ccc(OCCCCN3CCN(c4cccc5sccc45)CC3)cc21)N1CCOCC1 [Example 86, morpholine-4-carboxylic acid 7-[4-(4-benzo[b]thiophen-4-ylpiperazin-1-yl)butoxy]-2-oxo-3,4-dihydro-2H-quinolin-1-ylmethyl ester]	> 100 mg/mL
CCCCCCCC/C=C\CCCCCCCC(=O)OCn1c(=O)ccc2ccc(OCCCCN3CCN(c4cccc5sccc45)CC3)cc21 [Example 39, (Z)-octadec-9-enoic acid 7-[4-(4-benzo[b]thiophen-4-ylpiperazin-1-yl)butoxy]-2-oxo-2H-quinolin-1-ylmethyl ester]	> 100 mg/mL
CCCOC(=O)OCn1c(=O)ccc2ccc(OCCCCN3CCN(c4cccc5sccc45)CC3)cc21 [Example 165, carbonic acid 7-[4-(4-benzo[b]thiophen-4-ylpiperazin-1-yl)butoxy]-2-oxo-2H-quinolin-1-ylmethyl ester propyl ester]	> 100 mg/mL
CCCCCCCCCCCCCCCC(=O)OCN1C(=O)CCc2ccc(OCCCCN3CCN(c4cccc5sccc45)CC3)cc21 [Example 23, hexadecanoic acid 7-[4-(4-benzo[b]thiophen-4-ylpiperazin-1-yl)butoxy]-2-oxo-3,4-dihydro-2H-quinolin-1-ylmethyl ester]	> 100 mg/mL
CC(C)NC(=O)OCn1c(=O)ccc2ccc(OCCCCN3CCN(c4cccc5sccc45)CC3)cc21 [Example 117, N-isopropyl-carbamic acid 7-[4-(4-benzo[b]thiophen-4-ylpiperazin-1-yl)butoxy]-2-oxo-2H-quinolin-1-ylmethyl ester]	> 100 mg/mL
CCCCCCCC/C=C\CCCCCCCC(=O)OCN1C(=O)CCc2ccc(OCCCCN3CCN(c4cccc5sccc45)CC3)cc21 [Example 33, (Z)-octadec-9-enoic acid 7-[4-(4-benzo[b]thiophen-4-ylpiperazin-1-yl)butoxy]-2-oxo-3,4-dihydro-2H-quinolin-1-ylmethyl ester]	> 100 mg/mL
CCCCCCOC(=O)OCn1c(=O)ccc2ccc(OCCCCN3CCN(c4cccc5sccc45)CC3)cc21 [Example 175, carbonic acid 7-[4-(4-benzo[b]thiophen-4-ylpiperazin-1-yl)butoxy]-2-oxo-2H-quinolin-1-ylmethyl ester hexyl ester]	> 100 mg/mL
CCCCCCCCCCCCCCCNC(=O)OCN1C(=O)CCc2ccc(OCCCCN3CCN(c4cccc5sccc45)CC3)cc21 [Example 76, N-pentadecylcarbamic acid 7-[4-(4-benzo[b]thiophen-4-ylpiperazin-1-yl)butoxy]-2-oxo-3,4-dihydro-2H-quinolin-1-ylmethyl ester]	> 100 mg/mL
CCCCCCCCCCCC(=O)OCN1C(=O)CC(C)(C)c2ccc(OCCCCN3CCN(c4cccc5sccc45)CC3)cc21 [Example 154, dodecanoic acid 7-[4-(4-benzo[b]thiophen-4-ylpiperazin-1-yl)butoxy]-4,4-dimethyl-2-oxo-3,4-dihydro-2H-quinolin-1-ylmethyl ester]	> 100 mg/mL
COC(=O)CNC(=O)OCN1C(=O)CCc2ccc(OCCCCN3CCN(c4cccc5sccc45)CC3)cc21 [Example 89, {7-[4-(4-benzo[b]thiophen-4-ylpiperazin-1-yl)butoxy]-2-oxo-3,4-dihydro-2H-quinolin-1-ylmethoxycarbonylamino}acetic acid methyl ester]	> 100 mg/mL
CCN(CC)C(=O)OCn1c(=O)ccc2ccc(OCCCCN3CCN(c4cccc5sccc45)CC3)cc21 [Example 57, N,N-diethylcarbamic acid 7-[4-(4-benzo[b]thiophen-4-ylpiperazin-1-yl)butoxy]-2-oxo-2H-quinolin-1-ylmethyl ester]	> 100 mg/mL
CCCCCCCCCCCCCCCCCCCC(=O)OCN1C(=O)CCc2ccc(OCCCCN3CCN(c4cccc5sccc45)CC3)cc21 [Example 31, icosanoic acid 7-[4-(4-benzo[b]thiophen-4-ylpiperazin-1-yl)butoxy]-2-oxo-3,4-dihydro-2H-quinolin-1-ylmethyl ester]	> 100 mg/mL

Same assay, conditions: sesame oil, oil or lipid, thermodynamic from solid

Structure (SMILES)	solubility
O=C(OCN1C(=O)CCc2ccc(OCCCCN3CCN(c4cccc5sccc45)CC3)cc21)OC1CCCCC1 [Example 150, carbonic acid 7-[4-(4-benzo[b]thiophen-4-ylpiperazin-1-yl)butoxy]-2-oxo-3,4-dihydro-2H-quinolin-1-ylmethyl ester cyclohexyl ester]	> 100 mg/mL
CCCCN(CCCC)C(=O)OCn1c(=O)ccc2ccc(OCCCCN3CCN(c4cccc5sccc45)CC3)cc21 [Example 45, N,N-dibutylcarbamic acid 7-[4-(4-benzo[b]thiophen-4-ylpiperazin-1-yl)butoxy]-2-oxo-2H-quinolin-1-ylmethyl ester]	> 100 mg/mL
CCCCCCCCCCCC(=O)Oc1ccc2ccc(OCCCCN3CCN(c4cccc5sccc45)CC3)cc2n1 [Example 379, 7-[4-(4-benzo[b]thiophen-4-yl-piperazin-1-yl)-butoxy]-quinolin-2-yl dodecanoate]	> 100 mg/mL
CCCCCCCCCCCCCCCNC(=O)OCN1C(=O)CCc2ccc(OCCCCN3CCN(c4cccc5sccc45)CC3)cc21 [Example 76, N-pentadecylcarbamic acid 7-[4-(4-benzo[b]thiophen-4-ylpiperazin-1-yl)butoxy]-2-oxo-3,4-dihydro-2H-quinolin-1-ylmethyl ester]	> 100 mg/mL
CCCCCCCCCCCC(=O)OCN1C(=O)CC(C)(C)c2ccc(OCCCCN3CCN(c4cccc5sccc45)CC3)cc21 [Example 154, dodecanoic acid 7-[4-(4-benzo[b]thiophen-4-ylpiperazin-1-yl)butoxy]-4,4-dimethyl-2-oxo-3,4-dihydro-2H-quinolin-1-ylmethyl ester]	> 100 mg/mL
CCN(CC)C(=O)OCn1c(=O)ccc2ccc(OCCCCN3CCN(c4cccc5sccc45)CC3)cc21 [Example 57, N,N-diethylcarbamic acid 7-[4-(4-benzo[b]thiophen-4-ylpiperazin-1-yl)butoxy]-2-oxo-2H-quinolin-1-ylmethyl ester]	> 100 mg/mL

Test: physchem
Details: oil or lipid, thermodynamic from solid

Structure (SMILES)	solubility
O=C(Cc1ccccc1)OCn1c(=O)ccc2ccc(OCCCCN3CCN(c4cccc5sccc45)CC3)cc21 [Example 26, phenylacetic acid 7-[4-(4-benzo[b]thiophen-4-ylpiperazin-1-yl)butoxy]-2-oxo-2H-quinolin-1-ylmethyl ester]	> 100 mg/mL
